Source: patent publication US9149475B2, “Protein kinase C inhibitors and uses thereof” (Rigel Pharmaceuticals, Inc., priority 2009, dated 2015)

The molecules below were run on Human primary T cells (assay: IL-2 ELISA, human primary T cell, anti-CD3+CD28+ (whole cell assay)). Conditions: Homo sapiens, T-cell, 24 h, human primary T cells stimulated with anti-CD3 + anti-CD28, 24 hours.
Format: cell-based
Procedure, shortened: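 PBMC-derived T cells, pre-expanded on αCD3/αCD28 with IL-2 and then washed free of IL-2, were preincubated with compound for 1 hr at 37° C (100,000 cells/well). They were then stimulated on 1 μg/ml αCD3 plus 5 μg/ml αCD28 for 24 h, and supernatant IL-2 was measured by ELISA. The counter-assay used 0.5 ng/ml PMA plus 0.1 μM ionomycin instead.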

IC50 [nM] | Compound
250 to 500 | Cc1ccc(Nc2ncc(F)c(NC3CC(C)N(C4CC4)C(C)C3)n2)cc1-n1cnnn1 (stereo not shown) [III-6, N^4-(1-cyclopropyl-2,6-dimethylpiperidin-4-yl)-5-fluoro-N2-(4-methyl-3-(1H-tetrazol-1-yl)phenyl)pyrimidine-2,4-diamine]
< 250 | COc1cc(Nc2ncc(F)c(NC3CC(C)N(C4CC4)C(C)C3)n2)cc(-n2cnnn2)c1 (stereo not shown) [III-7, N^4-(1-cyclopropyl-2,6-dimethylpiperidin-4-yl)-5-fluoro-N2-(3-methoxy-5-(1H-tetrazol-1-yl)phenyl)pyrimidine-2,4-diamine]
< 250 | Cc1nnnn1-c1cccc(Nc2ncc(F)c(NC3CC(C)N(C4CC4)C(C)C3)n2)c1 (stereo not shown) [III-8, N^4-(1-cyclopropyl-2,6-dimethylpiperidin-4-yl)-5-fluoro-N2-(3-(5-methyl-1H-tetrazol-1-yl)phenyl)pyrimidine-2,4-diamine]
250 to 500 | CC1CC(Nc2nc(Nc3cccc(-n4nnnc4SCC(F)(F)F)c3)ncc2F)CC(C)N1C1CC1 (stereo not shown) [III-9, N^4-(1-cyclopropyl-2,6-dimethylpiperidin-4-yl)-5-fluoro-N2-(3-(5-(2,2,2-trifluoroethylthio)-1H-tetrazol-1-yl)phenyl)pyrimidine-2,4-diamine]
250 to 500 | CSc1nnnn1-c1cccc(Nc2ncc(F)c(NC3CC(C)N(C4CC4)C(C)C3)n2)c1 (stereo not shown) [III-10, N^4-(1-cyclopropyl-2,6-dimethylpiperidin-4-yl)-5-fluoro-N2-(3-(5-(methylthio)-1H-tetrazol-1-yl)phenyl)pyrimidine-2,4-diamine]
250 to 500 | CC1CC(Nc2nc(Nc3ccc(F)c(-n4cnnn4)c3)ncc2F)CC(C)N1C1CC1 (stereo not shown) [III-11, N^4-(1-cyclopropyl-2,6-dimethylpiperidin-4-yl)-5-fluoro-N^2-(4-fluoro-3-(1H-tetrazol-1-yl)phenyl)pyrimidine-2,4-diamine]
> 1000 | CC(=O)N1CCC(Oc2ccc(Nc3ncc(F)c(NC4CC(C)(C)N(C)C(C)(C)C4)n3)cc2F)CC1 [III-12, 1-(4-(2-fluoro-4-(5-fluoro-4-(1,2,2,6,6-pentamethylpiperidin-4-ylamino)pyrimidin-2-ylamino)phenoxy)piperidin-1-yl)ethanone]
> 1000 | CC(=O)N1CCC(Oc2ccc(Nc3ncc(F)c(NC4CC(C)(C)NC(C)(C)C4)n3)cc2F)CC1 [III-13, 1-(4-(2-fluoro-4-(5-fluoro-4-(2,2,6,6-tetramethylpiperidin-4-ylamino)pyrimidin-2-ylamino)phenoxy)piperidin-1-yl)ethanone]
> 1000 | CN1C(C)(C)CC(Nc2nc(Nc3ccc(OC4CCN(S(C)(=O)=O)CC4)c(F)c3)ncc2F)CC1(C)C [III-14, 5-fluoro-N2-(3-fluoro-4-(1-(methylsulfonyl)piperidin-4-yloxy)phenyl)-N4-(1,2,2,6,6-pentamethylpiperidin-4-yl)pyrimidine-2,4-diamine]
> 1000 | CC1(C)CC(Nc2nc(Nc3ccc(OC4CCN(S(C)(=O)=O)CC4)c(F)c3)ncc2F)CC(C)(C)N1 [III-15, 5-fluoro-N2-(3-fluoro-4-(1-(methylsulfonyl)piperidin-4-yloxy)phenyl)-N4-(2,2,6,6-tetramethylpiperidin-4-yl)pyrimidine-2,4-diamine]
> 1000 | CCNC(=O)N1CCC(Oc2ccc(Nc3ncc(F)c(NC4CC(C)(C)N(C)C(C)(C)C4)n3)cc2F)CC1 [III-16, N-ethyl-4-(2-fluoro-4-(5-fluoro-4-(1,2,2,6,6-pentamethylpiperidin-4-ylamino)pyrimidin-2-ylamino)phenoxy)piperidine-1-carboxamide]
> 1000 | CCNC(=O)N1CCC(Oc2ccc(Nc3ncc(F)c(NC4CC(C)(C)NC(C)(C)C4)n3)cc2F)CC1 [III-17, N-ethyl-4-(2-fluoro-4-(5-fluoro-4-(2,2,6,6-tetramethylpiperidin-4-ylamino)pyrimidin-2-ylamino)phenoxy)piperidine-1-carboxamide]
< 250 | CC(C)N1CCC(Oc2ccc(Nc3ncc(F)c(NC4CC(C)(C)N(C)C(C)(C)C4)n3)cc2F)CC1 [III-18, 5-fluoro-N2-(3-fluoro-4-(1-isopropylpiperidin-4-yloxy)phenyl)-N4-(1,2,2,6,6-pentamethylpiperidin-4-yl)pyrimidine-2,4-diamine]
250 to 500 | CC(C)N1CCC(Oc2ccc(Nc3ncc(F)c(NC4CC(C)(C)NC(C)(C)C4)n3)cc2F)CC1 [III-19, 5-fluoro-N2-(3-fluoro-4-(1-isopropylpiperidin-4-yloxy)phenyl)-N4-(2,2,6,6-tetramethylpiperidin-4-yl)pyrimidine-2,4-diamine]
250 to 500 | CN1C(C)(C)CC(Nc2nc(Nc3ccc(OC4CCN(S(C)(=O)=O)CC4)c(OC(F)F)c3)ncc2F)CC1(C)C [III-20, N2-(3-(difluoromethoxy)-4-(1-(methylsulfonyl)piperidin-4-yloxy)phenyl)-5-fluoro-N4-(1,2,2,6,6-pentamethylpiperidin-4-yl)pyrimidine-2,4-diamine]
500 to 1000 | CC1(C)CC(Nc2nc(Nc3ccc(OC4CCN(S(C)(=O)=O)CC4)c(OC(F)F)c3)ncc2F)CC(C)(C)N1 [III-21, N2-(3-(difluoromethoxy)-4-(1-(methylsulfonyl)piperidin-4-yloxy)phenyl)-5-fluoro-N4-(2,2,6,6-tetramethylpiperidin-4-yl)pyrimidine-2,4-diamine]
< 250 | CN1C(C)(C)CC(Nc2nc(Nc3ccc(OC4CCOCC4)c(OC(F)F)c3)ncc2F)CC1(C)C [III-22, N2-(3-(difluoromethoxy)-4-(tetrahydro-2H-pyran-4-yloxy)phenyl)-5-fluoro-N4-(1,2,2,6,6-pentamethylpiperidin-4-yl)pyrimidine-2,4-diamine]
250 to 500 | CC1(C)CC(Nc2nc(Nc3ccc(OC4CCOCC4)c(OC(F)F)c3)ncc2F)CC(C)(C)N1 [III-23, N2-(3-(difluoromethoxy)-4-(tetrahydro-2H-pyran-4-yloxy)phenyl)-5-fluoro-N4-(2,2,6,6-tetramethylpiperidin-4-yl)pyrimidine-2,4-diamine]
500 to 1000 | CN1C(C)(C)CC(Nc2nc(Nc3ccc(OC4CCOCC4)c(F)c3)ncc2F)CC1(C)C [III-24, 5-fluoro-N2-(3-fluoro-4-(tetrahydro-2H-pyran-4-yloxy)phenyl)-N4-(1,2,2,6,6-pentamethylpiperidin-4-yl)pyrimidine-2,4-diamine]
500 to 1000 | CN1C(C)(C)CC(Nc2nc(Nc3cc(F)c(OC4CCOCC4)c(F)c3)ncc2F)CC1(C)C [III-25, N2-(3,5-difluoro-4-(tetrahydro-2H-pyran-4-yloxy)phenyl)-5-fluoro-N4-(1,2,2,6,6-pentamethylpiperidin-4-yl)pyrimidine-2,4-diamine]
500 to 1000 | CC1(C)CC(Nc2nc(Nc3cc(F)c(OC4CCOCC4)c(F)c3)ncc2F)CC(C)(C)N1 [III-26, N2-(3,5-difluoro-4-(tetrahydro-2H-pyran-4-yloxy)phenyl)-5-fluoro-N4-(2,2,6,6-tetramethylpiperidin-4-yl)pyrimidine-2,4-diamine]
250 to 500 | CN1C(C)(C)CC(Nc2nc(Nc3ccc(OC4CCNCC4)c(OC(F)F)c3)ncc2F)CC1(C)C [III-27, N2-(3-(difluoromethoxy)-4-(piperidin-4-yloxy)phenyl)-5-fluoro-N4-(1,2,2,6,6-pentamethylpiperidin-4-yl)pyrimidine-2,4-diamine]
